Experimental data as given in ChEMBL document CHEMBL5725316, “Substituted imidazo[1,2-a]pyrazines as LSD1 inhibitors” (2017).

Target: Lysine-specific histone demethylase 1A (Homo sapiens, UniProt O60341)
Assay: LANCE LSD1/KDM1A Demethylase Assay: 10 μL of 1 nM LSD-1 enzyme (ENZO BML-SE544-0050) in the assay buffer (50 mM Tris, pH 7.5, 0.01% Tween-20, 25 mM NaCl, 5 mM DTT) were preincubated for 1 hour at 25° C. with 0.8 μL compound/DMSO dotted in black 384 well polystyrene plates. Reactions were started by addition of 10 μL of assay buffer containing […] Biotin-labeled Histone H3 peptide substrate: ART-K(Me1)-QTARKSTGGKAPRKQLA-GGK(Biotin) SEQ ID NO:1 (AnaSpec 64355) and incubated for 1 hour at 25° C. Reactions were stopped by addition of 10 μL 1× LANCE Detection Buffer (PerkinElmer CR97-100) supplemented with 1.5 nM Eu-anti-unmodified H3K4 Antibody (PerkinElmer TRF0404), and 225 nM LANCE Ultra Streptavidin (PerkinElmer TRF102) along with 0.9 mM Tranylcypromine-HCl (Millipore 616431). After stopping the reactions plates were incubated for 30 minutes and read on a PHERAstar FS plate reader (BMG Labtech).

## COC(=O)N(C)c1cc(-c2c(-c3ccc(C#N)cc3)nc(OC[C@@H]3CCCN(C)C3)c3nccn23)ccc1C
  IC50: < 50 nM
